Converted amounts (≈) assume the structure as drawn. Like-named read-outs stand apart in the source and are kept apart here.
Experiments:
HPV 6/11 Virus = experiment: HPV detection via fluorescence quantitative PCR in genital warts tissue homogenate; parameters: species or system human papillomavirus; conditions: for HPV 6/11 virus detection, in words: 24 hours after addition into the tissue homogenate of genital warts; for HPV 6/11 Virus: genital warts tissue homogenate, 37° C., 24 hours, FQ-PCR
Source text: (§1) The aforesaid compounds and/or compositions containing the same are effective in killing and inhibiting HPV type 6/11 and type 16/18, which can be used for the preparation of drugs for preventing and treating viral infection of HPV, preventing and treating genital warts, flat warts, common warts, vaginitis, cervicitis and cervical erosion, cervical cancer, esophageal cancer and other cancers caused by HPV. The present invention observes the effect of active ingredients and products by the detection of the change in the amount of the HPV virus through the real-time quantitative PCR. Such method has been applied in several publications (Youling C A I, et al., Chinese STD/AIDS, 2002, 8: 2,108; Yuansheng W U, Ruijiang F A N, et al., Practical Application of Integrated Chinese and Western Medicine in Clinics, 2003, 3: 2,1).
(§2) The microemulsion obtained in example 1 is used as a test sample and saline for blank control.
(§3) The standard clinical genital warts specimens from a variety of patients after being cut off are washed with saline for removing bloods, and are cut into pieces under aseptic conditions, added with saline in 3 times of their volumes to be uniformly mixed, grinded into homogenate and placed at −40° C. for use.
(§4) Each test sample drug microemulsion and the saline of 50 μl for each are respectively added with 50 μl the genital warts tissue homogenate, and incubated at 37° C. for 24 hours; tests are performed according to the operation procedure provided by the HPV6, 11 and 16, 18 type FQ-PCR diagnostic kits provided by Da'an Gene Diagnostic Center. 0.2 ml of DNA extracted by the conventional alkaline lysis method is put into the thin-walled reaction tube, and simultaneously added with primers, F-PROBE, DNTP, DNA polymerase, buffers and the like in a certain concentration; ABI PRISM™ 7700 fluorescence quantitative PCR amplifier is used to repeat 40 circulations each with 45 s at 93° C. and 120 s at 55° C. after predegeneration at 93° C. for 2 mins; the quantitative results are automatically analyzed by the computer software to calculate the quantitative results of the initial copy number. The data are shown in Table 2 (completed by Da'an Gene Clinical Test Center).

HPV16/18 = experiment: as above; parameters: species or system human papillomavirus; conditions: for HPV16/18 virus detection, in words: 24 hours after addition into the tissue homogenate of genital warts; for HPV16/18: genital warts tissue homogenate, 37° C., 24 hours, FQ-PCR
Source text: as §1, §2, §3, §4

HIV-1 integrase = target: T1, HIV-1 integrase (Human immunodeficiency virus type 1 group M subtype B, UniProt P04585); experiment: Test of sample inhibition to HIV-1 integrase (ELISA, strand transfer); assay type: biochemical; conditions: for inhibition at 109 µg/mL: read-out: IC50 (HIV-1 IN inhibition), dash
T1 construct: purified HIV-1 integrase is added to donor substrates coated 96-well plate; made in house
Protocol: The half-inhibitory concentration IC50 for 3′ excision of the substrate and the strand transfer is in the range of 88.92-10.20 μg/ml, in which the best inhibitory activity of the compound is higher than that of the monomer compound of hydroxybenzoic acid. The mechanism of the HIV-1 integrase is a two-step reaction: 1) 3′ Processing: the integrase binds to the specific sequences of the long terminal repeat region (LTR) of the proviral DNA to form a stable complex, then the endonucleotides of 3′ end of nucleoside is processed, and the GT dinucleotide of the sequence . . . […] Thus, the activity of the integrase inhibitor is embodied in inhibiting the excision of the 3′end of the viral DNA or the strand transfer, and is represented by a half-inhibitory concentration IC50.
In vitro integrase test, 30 synthetic oligonucleotides are used as donor substrates, 20 synthetic oligonucleotides are used as target substrates. Purified HIV-1 integrase is added to donor substrates coated 96-well plate, ELISA reaction is performed, the product of the strand transfer of target DNA is detected, color development is conducted by biotin-labeled alkaline phosphatase system, and the microplate reader is used to measure the OD value.
First, inhibitors of the enzyme may be screened by adding a sample to the reaction system. Before use, the sample is prepared with DMSO to an appropriate concentration, and then is diluted 5 times at 4 dilutions. The sample after dilution is added into the donor substrate coated 96-well plate, and then added to the reaction Buffer containing the genetically engineered target enzyme and the biotin-target substrate, incubated under optimal reaction conditions, and colored by biotin-labeled alkaline phosphatase system, and the OD value for absorbance value at 405 nm is measured.
30 synthetic oligonucleotides are used as donor substrates, 20 synthetic oligonucleotides are used as target substrates, purified HIV-1 integrase is added to donor substrates coated 96-well plate, ELISA reaction is performed, the product of the strand transfer of target DNA is detected, color development is conducted by biotin-labeled alkaline phosphatase system, and the OD value is measured by a microplate reader. The addition of samples to the reaction system can be used to screen inhibitors for the enzyme.
1. HIV-1 IN: it is extracted and saved by Chinese National New Drug Screening Center and Institute of Pharmaceutical Biotechnology under Chinese Academy of Medical Sciences.
2. Sample Treatment: 10 samples A1-A10 dissolved into DMSO prior to use are prepared into suitable concentrations, and then diluted 5 times at 4 dilutions. Donor substrate and target substrate are from Shanghai Biochemical Synthesis.
3. Method for Test: the samples after dilution are added into the donor substrate coated 96-well plate, then added to the reaction Buffer containing the genetically engineered target enzyme and the biotin-target substrate, incubated under optimal reaction conditions, and colored by biotin-labeled alkaline phosphatase system, and the OD value for absorbance value at 405 nm is measured.

Vero cells = experiment: Half toxic concentration in the anti-herpes screening; assay type: cell-based, African green monkey
Protocol: Vero cells (kidney cells of African green monkey) are used as viral hosts to test the inhibition degree of the samples to cytopathic effects of the Vero cell caused by herpes virus type I and type II. 2. Sample treatment: the sample is dissolved in DMSO at an appropriate concentration before use, and diluted with the culture medium 3 times at a total of 8 dilutions for test. 4.

HSV-I, VR733 strain = experiment: Inhibition of cytopathic effects of Vero cells caused by herpes virus type I; assay type: cell-based; conditions: for IC50: read-out: IC50 Against HSV-1
Source text: (§5) Vero cells (kidney cells of African green monkey) are used as viral hosts to test the inhibition degree of the samples to the cytopathic effects of Vero cells caused by herpes virus type I and type II.
(§6) Vero cells (kidney cells of African green monkey) are used as viral hosts to test the inhibition degree of the samples to cytopathic effects of the Vero cell caused by herpes virus type I and type II.
(§7) 1. Virus strains: HSV-I, VR733 strain, and HSV-II, SAV strain, which both are provided by ATCC.
(§8) 2. Sample treatment: the sample is dissolved in DMSO at an appropriate concentration before use, and diluted with the culture medium 3 times at a total of 8 dilutions for test.
(§9) 3. Positive control drug: acyclovir (ACV) produced by the Hubei Ke Yi pharmaceutical factory.

HSV-II, SAV strain = experiment: Inhibition of cytopathic effects of Vero cells caused by herpes virus type II; assay type: cell-based; conditions: for IC50: read-out: IC50 Against HSV-II
Source text: as §5, §6, §7, §8, §9

[1] = Vero cells, CPE 48 hours, Reed-Muench

SMILES	HPV 6/11 virus detection, in words (HPV 6/11 Virus)	HPV 6/11 Virus (HPV 6/11 Virus)	HPV16/18 virus detection, in words (HPV16/18)	HPV16/18 (HPV16/18)	IC50 (HIV-1 integrase) [µM]	also measured
O=C(c1ccccc1O)c1cccc(O)c1O [2,2′3′-trihydroxybenzophenone]	can no longer be detected	0 copy/ml	can no longer be detected	0 copy/ml	45.4	–
O=C(c1ccccc1O)c1ccccc1O [2,2′-dihydroxybenzophenone]	can no longer be detected	0 copy/ml	can no longer be detected	0 copy/ml	71.5	TC50 half toxic concentration (Vero cells): 64.15 µg/mL (≈ 299 µM); IC50 (HSV-I, VR733 strain; Human alphaherpesvirus 1, Vero, 48 h): 28.7 µg/mL (≈ 134 µM); IC50 (HSV-II, SAV strain; Human alphaherpesvirus 2, Vero, 48 h): 28.7 µg/mL (≈ 134 µM)
O=C(c1ccc(O)cc1O)c1cc(O)c(O)c(O)c1O [2,3,4,2′,4′,5-hexahydroxybenzophenone]	–	–	–	–	–	IC50 Against HSV-1 (HSV-I, VR733 strain; [1]): 28.74 µg/mL (≈ 103 µM); IC50 Against HSV-II (HSV-II, SAV strain; [1]): 28.74 µg/mL (≈ 103 µM)
O=C(O)c1cccc(O)c1O [2,3-dihydroxybenzoic acid, reference compound]	have a high concentration	2.30 × 10^4 copy/ml	have a high concentration	3.20 × 10^3 copy/ml	–	inhibition at 109 µg/mL (HIV-1 integrase): < 50%
O=C(O)c1cc(O)c(O)c(O)c1 [3,4,5-trihydroxybenzoic acid, reference compound]	–	0 copy/ml	–	0 copy/ml	591	–
O=C(O)c1ccc(O)c(O)c1 [3,4-dihydroxybenzoic acid, reference compound]	have a high concentration	1.90 × 10^4 copy/ml	have a high concentration	8.50 × 10^4 copy/ml	–	inhibition at 109 µg/mL (HIV-1 integrase): < 50%
Nc1nc2c(ncn2COCCO)c(=O)[nH]1 [ACV, acyclovir, reference compound]	–	–	–	–	–	IC50 (HSV-I, VR733 strain; Human alphaherpesvirus 1, Vero cells, CPE 48 hours, Reed-Muench): 1.09 µg/mL (≈ 4.85 µM); IC50 (HSV-II, SAV strain; Human alphaherpesvirus 2, Vero cells, CPE 48 hours, Reed-Muench): 1.23 µg/mL (≈ 5.46 µM)
